Tests used:
Format in all cases: cell-based, human
hPASMC = assay: Cell proliferation rate in hPASMC following EMAP II treatment; conditions: inhibitor pretreatment, EMAP II 24 hours
Method: Cells were treated with EMAP II or vehicle, cells were rinsed at the desired time point, and lysis buffer was applied.

[1] = test system: pSPHK2 in nuclear fractions of hPASMC; assay: Nuclear pSPHK2 in hPASMC after EMAP II treatment (immunoblot of nuclear fractions, immunofluorescence); conditions: inhibitor pretreatment, EMAP II 150 minutes
Method: Primary human pulmonary artery smooth muscle cells (hPASMC) purchased from Lonza (Walkersville, MD) were cultured in complete growth medium containing smooth muscle growth media-2 (SmGM-2) with 10% FBS and growth factors provided as a kit by the supplier (Lonza, (Walkersville, MD). Cells were cultured in a humidified atmosphere with 5% CO2 at 37° C. For all studies, passages 5-10 were used for hPASMCs. For treatment studies, subconfluent cells plated in multi-well plates were serum starved and if required, pretreated with inhibitors before stimulation with 2 μg/mL recombinant EMAP II. All the controls were handled similar to the test samples. Cells were treated with EMAP II or vehicle, cells were rinsed at the desired time point, and lysis buffer was applied.
After appropriate treatments, protein lysates were prepared by using RIPA buffer (for cells) or home-made lysis buffer (tissue) supplemented with phosphatase and protease inhibitors (Thermo Fisher Scientific). Alpha-tubulin or Vinculin was used as a loading control. For nuclear and cytoplasmic fractionation, NE-PER kit from Thermo Fischer Scientific was used. Western blots were performed according to standard methods and quantified using densitometry using Image Studio Lite software from LI-COR Biosciences. […]

nuclear S1P = assay: ELISA for S1P quantification in nuclear fractions of hPASMC; conditions: inhibitor pretreatment, EMAP II 15 or 150 minutes
Method: Equal number of hPASMC cells (15000/[…]) were plated and serum starved for overnight. Cells were pretreated with inhibitors if needed and stimulated for in a series of time points and collected the cells. Cells were pelleted out and washed with PBS. After the extraction of nuclear proteins, protein concentration was measured. S1P levels were measured using S1P ELISA kit (MyBioSource, MBS069092) following manufacturer's instructions. S1P levels were normalized against protein levels.

HDAC = HDAC assay in nuclear fractions of hPASMC; conditions: inhibitor pretreatment, EMAP II 150 minutes
Method: Equal number of hPASMC cells (15000/[…]) were plated and serum starved for overnight. Cells were pretreated with inhibitors and stimulated for the desired time points and collected. Cells were pelleted out and washed with PBS. After the extraction of nuclear proteins, protein concentration was measured. HDAC levels were measured using HDAC activity flurometric kit (Abcam, ab156064) following manufacturer's instructions. Free unbound HDAC levels were normalized against protein levels.

Ac-H3K9 = assay: CUT&RUN with acetylated H3K9 antibody in hPASMC; conditions: for EMAP II promoted hyperacetylation of H3K9 (Ac-H3K9 peaks): EMAP II 2-3 hours
Method: Cleavage Under Targets and Release Using Nuclease (CUT&RUN) was performed with hPASMC using CUTANA® protocol v1.6. For each condition, nuclei from two biological replicates were extracted by incubating cells on ice for 10 min in Nuclei Extraction buffer (NE: 20 mM HEPES-KOH, pH 7.9; 10 mM KCl; 0.1% Triton X-100; 20% Glycerol; 0.5 mM spermidine; 1× complete protease inhibitor (GoldBio), collecting by centrifugation (600 g, 3 min, 4° C.), discarding the supernatant, and resuspending at [100 μl/500K nuclei] sample in NE buffer. For each target 500K nuclei were immobilized onto Concanavalin-A beads (EpiCypher #21-1401) and incubated overnight (4° C. with gentle rocking) with 0.5 μg of antibody IgG (negative control), trimethylated H3K4 (positive control), Ac-H3K9 (all validated to SNAP-ChIP nucleosome standards). CUT&RUN enriched DNA was purified and used to prepare sequencing libraries with the Ultra II DNA Library Prep kit (New England Biolabs #E7645S). Libraries were sequenced on the Illumina NextSeq 550, obtaining ˜8 million paired end reads on average. The CUT&RUN paired reads were used for quality control using FASTQ Groomer (Galaxy Version 1.1.5) and paired ends were aligned against the GRCh38/hg38 reference genome assembly for human using bowtie2 (Galaxy Version 2.4.2+galaxy0). After quality-based filtering with SAM or BAM tools (Galaxy Version 1.8+galaxy1), MACS2 (Galaxy Version 2.1.1.20160309.6) was applied for CUT&RUN peak calling of Ac-H3K9 against the IgG control with genome size of 2.7e9 and then, DiffBind (Galaxy Version 2.10.0) was used to analyze the differential binding sites between the control and rEMAP II treated samples.

iPAH: PASMCs = assay: Cell proliferation rate of iPAH: PASMCs; conditions: iSPHK2 pretreatment 24 hours
Method: All studies involving human lung tissues and cells were conducted according to the Institutional review board of Indiana University School of Medicine. Deidentified archived tissues and pulmonary arterial smooth muscle cells (PASMCs) obtained from the Pulmonary Hypertension Breakthrough Initiative (PHBI) biorepository from patients with Idiopathic Pulmonary Arterial Hypertension (iPAH: Group 1 PH) at time of lung transplantation and patients without PH that were failed donor lungs (FDL).
Primary human PASMCs (hPASMCs), pulmonary microvascular endothelial cells (hPMVECs) purchased from Lonza (Walkersville, MD) and iPAH: PASMCs were cultured in complete growth medium or conditioned media in a humidified atmosphere or 1% O2 with 5% CO2 at 37° C. For all studies, passages 5-10 were used for hPASMCs and hPMVECs.

## Cc1cc(CS(=O)(=O)c2ccccc2)cc(OCc2ccc(CN3CCCC3CO)cc2)c1 (stereo not shown) [SPHK1 inhibitor, PF643]
hPASMC
  EMAP II mediated cell proliferation: blocked EMAPII mediated proliferation

## O=C(NCc1ccncc1)C12CC3CC(C1)CC(c1ccc(Cl)cc1)(C3)C2 [SPHK2 inhibitor, ABC294640]
[1]
  EMAP II induced nuclear activation of SPHK2 (nuclear pSPHK2/lamin B): ablated the EMAP II induced nuclear activation of SPHK2
[1]; listed as iSPHK2
  EMAP II induced nuclear activation of SPHK2 (nuclear pSPHK2/lamin B): ablated the EMAPII induced nuclear activation of SPHK2
Nuclear S1P
  EMAP II generated nuclear S1P: suppressed EMAP II generated nuclear S1P expression
Nuclear S1P; listed as iSPHK2
  EMAP II generated nuclear S1P: suppressed EMAPII generated nuclear S1P expression
HDAC
  HDAC activity: rescued decreased HDAC activity
HDAC; listed as iSPHK2
  HDAC activity: rescued the loss of HDAC activity
HDAC; listed as iSPHK2 inhibitor
  HDAC activity: rescued the loss of HDAC activity
hPASMC
  EMAP II mediated cell proliferation: blocked EMAPII mediated proliferation
hPASMC; listed as iSPHK2
  EMAP II mediated cell proliferation: rescued
Ac-H3K9
  differentially acetylated sites by EMAPII that are altered by iSPHK2 pretreatment: 5554 sites
  differentially acetylated upstream sites by EMAPII that are also altered by iSPHK2 pretreatment: 755 sites
Ac-H3K9; inhibitor pretreatment
  EMAP II promoted hyperacetylation of H3K9 (Ac-H3K9 peaks): partially diminished EMAP II promoted hyperacetylation of H3K9
Ac-H3K9; inhibitor pretreatment, listed as iSPHK2
  EMAP II promoted hyperacetylation of H3K9 (Ac-H3K9 peaks): partially diminished EMAPII promoted hyperacetylation of H3K9
Ac-H3K9; inhibitor pretreatment, EMAPII treated
  level of Ac-H3K9 regions in KLF4: rescued the level of Ac-H3K9 regions in EMAPII treated cells
iPAH: PASMCs
  proliferation rate: restoring regular proliferation rates in iPAH: PASMCs

Reference: patent US20240401058A1, “METHOD OF REGULATING PULMONARY ARTERY VASCULAR REMODELING” (THE TRUSTEES OF INDIANA UNIVERSITY, priority 2021, published 2024)
